± gives the expanded uncertainty stated by the source.
Key:
[1] = refractive index (Na D-line) (dimensionless); conditions: 101.33 kPa, Liquid, Standard Abbe refractometry
[2] = 101.33 kPa, Liquid
[3] = molar heat capacity at constant pressure; conditions: 101.33 kPa, Liquid, Small sample (50 mg) DSC

Row | Compound | refractive index ([1]; 293.15 K) | refractive index ([1]; 303.15 K) | refractive index ([1]; 313.15 K) | mass density ([2]; 293.15 K) [kg/m3] | viscosity ([2]; 293.15 K) [mPa·s] | mass density ([2]; 303.15 K) [kg/m3] | viscosity ([2]; 303.15 K) [mPa·s] | mass density ([2]; 313.15 K) [kg/m3] | viscosity ([2]; 313.15 K) [mPa·s] | molar heat capacity at constant pressure ([3]; 288.15 K) [J/K/mol] | molar heat capacity at constant pressure ([3]; 293.15 K) [J/K/mol] | molar heat capacity at constant pressure ([3]; 298.15 K) [J/K/mol] | molar heat capacity at constant pressure ([3]; 303.15 K) [J/K/mol] | molar heat capacity at constant pressure ([3]; 308.15 K) [J/K/mol] | molar heat capacity at constant pressure ([3]; 313.15 K) [J/K/mol] | molar heat capacity at constant pressure ([3]; 318.15 K) [J/K/mol] | molar heat capacity at constant pressure ([3]; 323.15 K) [J/K/mol]
1 | CC1CCCO1 (stereo unspecified) [2-methyltetrahydrofuran] | 1.4085 ± 0.0008 | 1.4017 ± 0.0007 | 1.3959 ± 0.0007 | 853.15 ± 0.68 | 0.492 ± 0.008 | 842.8 ± 0.7 | 0.443 ± 0.008 | 832.44 ± 0.72 | 0.416 ± 0.007 | 153.5 ± 2.4 | 155.3 ± 2.4 | 156.9 ± 2.4 | 158.7 ± 2.5 | 160.2 ± 2.5 | 162.1 ± 2.5 | 164.2 ± 2.5 | 166.2 ± 2.6
2 | C[S+](C)[O-] [dimethyl sulfoxide] | 1.4815 ± 0.0007 | 1.475 ± 0.0007 | 1.4706 ± 0.0006 | 1100.42 ± 0.23 | 2.213 ± 0.033 | 1090.41 ± 0.22 | 1.812 ± 0.027 | 1080.26 ± 0.21 | 1.513 ± 0.023 | 149.9 ± 2.3 | 150.4 ± 2.3 | 151.5 ± 2.3 | 152.2 ± 2.4 | 152.9 ± 2.4 | 153.7 ± 2.4 | 154.7 ± 2.4 | 155.6 ± 2.4
3 | C1CCOCC1 [tetrahydropyran] | 1.4235 ± 0.0008 | 1.4171 ± 0.0007 | 1.4119 ± 0.0007 | 883.79 ± 0.62 | 0.875 ± 0.014 | 873.95 ± 0.64 | 0.752 ± 0.012 | 863.62 ± 0.66 | 0.658 ± 0.011 | 143.4 ± 2.2 | 145.2 ± 2.3 | 147.8 ± 2.3 | 150.2 ± 2.3 | 152.6 ± 2.4 | 156 ± 2.4 | 157.6 ± 2.4 | 159.9 ± 2.5

Reference: the NIST ThermoML archive (doi:10.1021/je600557n)
